One substance from patent US6083481A, “Thrombus imaging agents” (Diatide, Inc., priority 1998, dated 2000) can be followed below.

pIC50: −log10 of the molar value.

For the assay, the system named is human platelets in platelet-rich plasma. The assay is described as follows: Platelet aggregation inhibition assay (ADP-induced, platelet-rich plasma). The conditions noted are these: fresh human platelet-rich plasma, aggregation induced by ADP 10 to 15 micromolar; read-out: IC50 (concentration of reagent that inhibits by 50% the aggregation of human platelets). The format is cell-based. On the procedure:
Platelet aggregation studies were performed essentially as described by Zucker (1989, Methods in Enzymol. 169: 117-133). Briefly, platelet aggregation was assayed with or without putative platelet aggregation inhibitory compounds using fresh human platelet-rich plasma comprising 300,000 platelets per microlitre. Platelet aggregation was induced by the addition of a solution of adenosine diphosphate to a final concentration of 10 to 15 micromolar, and the extent of platelet aggregation monitored using a Bio/Data aggregometer (Bio/Data Corp., Horsham. Pa.). The concentrations of platelet aggregation inhibitory compounds used were varied from 0.1 to 500 μg/mL. The concentration of inhibitor that reduced the extent of platelet aggregation by 50% (defined as the IC50) was determined from plots of inhibitor concentration versus extent of platelet aggregation. An inhibition curve for peptide RGDS was determined for each batch of platelets tested as a positive control.
*concentration of reagent that inhibits by 50% the aggregation of human
platelets in plateletrich plasma induced to aggregate by the addition of
adenosine diphosphate (ADP).

As for GRDGVRGDFCAcm GCAcm amide [Peptide P98], the pIC50 is 4.82.
